Laboratory results as given in article PMC5642494 (Oncotarget, 2017).
pEC50: −log10 of the molar value.

Tests used:
MCF7 cells = experiment: Ki-67 protein expression, MCF7; format: cell-based; conditions: Homo sapiens, 2 DT, read-out: EC50 Ki-67 levels
Description: Relative IC50/EC50 values were determined by curve fitting to a four parameter logistic equation: Y = bottom + ((top-bottom)/ (1+exp(HillSlope*(X – LnIC50)), where X is the natural log of dose/concentration, Y is response, decreasing as X increases, top and bottom are plateaus in the same units as Y, lnIC50 is the natural log of potency, in the same log units as X, and HillSlope measures the steepness of the curve. Data were plotted using GraphPad Prism.
After 72 hours, cells were stained with an anti-FOXM1 antibody and a secondary goat anti-rabbit IgG, Alexa Fluor® 488 conjugate; nuclei were stained with propidium iodide (PI). Alternatively, for assessment of Ki-67 levels, cells were treated for 2 DT and then stained with Ki-67 and a secondary goat anti-rabbit IgG, Alexa Fluor® 488 conjugate. Plates were read in an Acumen Explorer Ex3 (TTP Labtech) using Cellista software and the percentages of FOXM1 positive and Ki-67 positive cells were calculated over the background signal. Data were normalized in Excel using the mean value obtained from treatment with 2 µM BEZ235 as the minimum and the mean value obtained from treatment with 0.2% DMSO as the maximum.

ZR-75-1 xenograft tumors = experiment: In vivo target inhibition, immunoblotting of ZR-75-1 xenograft tumors; design: species or system mouse; conditions: 50 or 75 mg/kg QD x 5, Western blots
Description: Control animals were treated with vehicle (1% HEC/ 25 mM phosphate buffer, pH = 2) using the same schedule of dosing. The red bar just above the X-axis illustrates the duration of the treatment period. Tumor volume measurements were taken routinely during the course of the study and are plotted as mean +/- SEM versus days following tumor cell implantation. (B) Body weights were recorded routinely during the course of the study and are plotted as mean % change (+/– SEM) relative to the mean body weight recorded on the day just prior to the first day of dosing (baseline day = 27). (C) The waterfall plots indicate the relative tumor volumes for individual animals which were determined at the end of the dosing period (study day 55). […] Growth inhibition is observed in those instances where the calculated changes in %DT/C are less than 100% whereby greater inhibition results in smaller %DT/C values. Change in %DT/C values that are less than zero indicate regressions whereby the tumor volumes on day 55 are smaller than the baseline tumor volume measured on the day prior to the initiation of dosing (baseline day = day 27). […] The tumor volumes measured on day 27 served as the baseline volumes for the calculation of %DT/C. […] Potential CDK9 inhibition was assessed by measuring the expression of MCL1 or phosphorylation of serine 2 on the C-terminal domain repeat on RNA polymerase II (pCTD). […]

Compound: CCN1CCN(Cc2ccc(Nc3ncc(F)c(-c4cc(F)c5nc(C)n(C(C)C)c5c4)n3)nc2)CC1 [abemaciclib, Abemaciclib]
- pEC50 (MCF7 cells): 7.38
- CDK9 inhibition in tumors (pCTD, MCL1 expression) (ZR-75-1 xenograft tumors): not inhibited at any dose
- phospho-(Ser780/807/811)-Rb, Topo IIα and phospho-(Ser10)-H3 in tumors (ZR-75-1 xenograft tumors; tumors collected 24 hours later): inhibition of phospho-(Ser780/807/811)-Rb
